In US10202361B2, “Pyridazinones as herbicides” (E I DU PONT DE NEMOURS AND COMPANY, priority 2014, dated 2019):

Experiments:
Type in all cases: in vivo
[1] = tested on: wheat (Triticum aestivum); assay: Test A pre-/postemergence greenhouse herbicide test; conditions: 0 to 100 scale (0 no effect, 100 complete control), approx. 10 d
From the text: (§1) Seeds of plant species selected from barnyardgrass (Echinochloa crus-galli), crabgrass, Large (large crabgrass, Digitaria sanguinalis), foxtail, giant (giant foxtail, Setaria faberii), morningglory (Ipomoea spp.), pigweed (Amaranthus retroflexus), velvetleaf (Abutilon theophrasti), wheat (Triticum aestivum), and corn (Zea mays) were planted into a blend of loam soil and sand and treated preemergence with a directed soil spray using test chemicals formulated in a non-phytotoxic solvent mixture which included a surfactant. At the same time these species were also treated with postemergence applications of test chemicals formulated in the same manner.
(§2) Plants ranged in height from 2 to 10 cm and were in the one- to two-leaf stage for the postemergence treatment. Treated plants and untreated controls were maintained in a greenhouse for approximately 10 d, after which time all treated plants were compared to untreated controls and visually evaluated for injury. Plant response ratings, summarized in Table A, are based on a 0 to 100 scale where 0 is no effect and 100 is complete control. A dash (-) response means no test result.

[2] = tested on: pigweed (Amaranthus retroflexus); assay: as above; conditions: 0 to 100 scale (0 no effect, 100 complete control), approx. 10 d
From the text: as §1, §2

corn (Zea mays) = assay: as above; conditions: 0 to 100 scale (0 no effect, 100 complete control), approx. 10 d
From the text: as §1, §2

[3] = tested on: foxtail, giant (giant foxtail, Setaria faberii); assay: as above; conditions: 0 to 100 scale (0 no effect, 100 complete control), approx. 10 d
From the text: as §1, §2

[4] = tested on: morningglory (Ipomoea spp.); assay: as above; conditions: 0 to 100 scale (0 no effect, 100 complete control), approx. 10 d
From the text: as §1, §2

[5] = tested on: crabgrass, Large (large crabgrass, Digitaria sanguinalis); assay: as above; conditions: 0 to 100 scale (0 no effect, 100 complete control), approx. 10 d
From the text: as §1, §2

[6] = tested on: barnyardgrass (Echinochloa crus-galli); assay: as above; conditions: 0 to 100 scale (0 no effect, 100 complete control), approx. 10 d
From the text: as §1, §2

[7] = tested on: velvetleaf (Abutilon theophrasti); assay: as above; conditions: 0 to 100 scale (0 no effect, 100 complete control), approx. 10 d
From the text: as §1, §2

rice (Oryza sativa) = assay: Test B flooded paddy test; conditions: Flood, 125 g ai/ha; scale of 0 to 100, 0 is no effect, 100 is complete control; 13 to 15 d
Protocol: (§3) Plant species in the flooded paddy test selected from rice (Oryza sativa), small-flower sedge, umbrella (small-flower umbrella sedge, Cyperus difformis), ducksalad (Heteranthera limosa), and barnyardgrass (Echinochloa crus-galli) were grown to the 2-leaf stage for testing. At time of treatment, test pots were flooded to 3 cm above the soil surface, treated by application of test compounds directly to the paddy water, and then maintained at that water depth for the duration of the test. Treated plants and controls were maintained in a greenhouse for 13 to 15 d, after which time all species were compared to controls and visually evaluated. Plant response ratings, summarized in Table B, are based on a scale of 0 to 100 where 0 is no effect and 100 is complete control. A dash (-) response means no test result.

[8] = tested on: sedge, umbrella (small-flower umbrella sedge, Cyperus difformis); assay: Test B flooded paddy test; conditions: Flood, 125 g ai/ha; scale of 0 to 100, 0 is no effect, 100 is complete control; 13 to 15 d
Protocol: as §3

[9] = tested on: ducksalad (Heteranthera limosa); assay: Test B flooded paddy test; conditions: Flood, 125 g ai/ha; scale of 0 to 100, 0 is no effect, 100 is complete control; 13 to 15 d
Protocol: as §3

[10] = tested on: barnyardgrass (Echinochloa crus-galli); assay: Test B flooded paddy test; conditions: Flood, 125 g ai/ha; scale of 0 to 100, 0 is no effect, 100 is complete control; 13 to 15 d
Protocol: as §3

Structure (SMILES)	Plant response rating, Wheat ([1]; Postemergence, 125 g ai/ha)	Plant response rating, Wheat ([1]; Postemergence, 500 g ai/ha)	Plant response rating, Wheat ([1]; Preemergence, 125 g ai/ha)	Plant response rating, Wheat ([1]; Preemergence, 500 g ai/ha)	Plant response rating, Pigweed ([2]; Postemergence, 125 g ai/ha)	Plant response rating, Pigweed ([2]; Postemergence, 500 g ai/ha)	Plant response rating, Pigweed ([2]; Preemergence, 125 g ai/ha)	Plant response rating, Pigweed ([2]; Preemergence, 500 g ai/ha)	Plant response rating, Corn (corn (Zea mays); Postemergence, 125 g ai/ha)	Plant response rating, Corn (corn (Zea mays); Postemergence, 500 g ai/ha)	Plant response rating, Corn (corn (Zea mays); Preemergence, 125 g ai/ha)	Plant response rating, Corn (corn (Zea mays); Preemergence, 500 g ai/ha)	Plant response rating, Foxtail, Giant ([3]; Postemergence, 125 g ai/ha)	Plant response rating, Foxtail, Giant ([3]; Postemergence, 500 g ai/ha)	Plant response rating, Foxtail, Giant ([3]; Preemergence, 125 g ai/ha)	Plant response rating, Foxtail, Giant ([3]; Preemergence, 500 g ai/ha)	Plant response rating, Morningglory ([4]; Postemergence, 125 g ai/ha)	Plant response rating, Morningglory ([4]; Postemergence, 500 g ai/ha)	Plant response rating, Morningglory ([4]; Preemergence, 125 g ai/ha)	Plant response rating, Morningglory ([4]; Preemergence, 500 g ai/ha)	other results
CCCOc1cc(=O)n(-c2ccc(C(F)(F)F)cc2)nc1Cc1ccnc(C(F)(F)F)c1 [Compound 19]	0	10	0	0	80	80	60	70	10	10	0	0	10	20	40	70	10	30	0	10	Plant response rating, Crabgrass, Large ([5]; Postemergence, 125 g ai/ha): 10; Plant response rating, Crabgrass, Large ([5]; Postemergence, 500 g ai/ha): 20; Plant response rating, Crabgrass, Large ([5]; Preemergence, 125 g ai/ha): 70; Plant response rating, Crabgrass, Large ([5]; Preemergence, 500 g ai/ha): 90; Plant response rating, Barnyardgrass ([6]; Postemergence, 125 g ai/ha): 10; Plant response rating, Barnyardgrass ([6]; Postemergence, 500 g ai/ha): 20; Plant response rating, Barnyardgrass ([6]; Preemergence, 125 g ai/ha): 0; Plant response rating, Barnyardgrass ([6]; Preemergence, 500 g ai/ha): 10; Plant response rating, Velvetleaf ([7]; Postemergence, 125 g ai/ha): 10; Plant response rating, Velvetleaf ([7]; Postemergence, 500 g ai/ha): 50; Plant response rating, Velvetleaf ([7]; Preemergence, 125 g ai/ha): 0; Plant response rating, Velvetleaf ([7]; Preemergence, 500 g ai/ha): 10; Plant response rating, Rice (rice (Oryza sativa)): 0; Plant response rating, Sedge, Umbrella [8]: 0; Plant response rating, Ducksalad [9]: 0; Plant response rating, Barnyardgrass [10]: 0
CN(C)c1cc(=O)n(-c2ccc(F)cc2)nc1Cc1ccnc(C(F)(F)F)c1 [Compound 20]	0	50	0	30	90	100	100	100	30	60	0	10	40	80	80	100	50	100	10	60	Plant response rating, Crabgrass, Large ([5]; Postemergence, 125 g ai/ha): 50; Plant response rating, Crabgrass, Large ([5]; Postemergence, 500 g ai/ha): 90; Plant response rating, Crabgrass, Large ([5]; Preemergence, 125 g ai/ha): 100; Plant response rating, Crabgrass, Large ([5]; Preemergence, 500 g ai/ha): 100; Plant response rating, Barnyardgrass ([6]; Postemergence, 125 g ai/ha): 50; Plant response rating, Barnyardgrass ([6]; Postemergence, 500 g ai/ha): 90; Plant response rating, Barnyardgrass ([6]; Preemergence, 125 g ai/ha): 20; Plant response rating, Barnyardgrass ([6]; Preemergence, 500 g ai/ha): 90; Plant response rating, Velvetleaf ([7]; Postemergence, 125 g ai/ha): 60; Plant response rating, Velvetleaf ([7]; Postemergence, 500 g ai/ha): 70; Plant response rating, Velvetleaf ([7]; Preemergence, 125 g ai/ha): 20; Plant response rating, Velvetleaf ([7]; Preemergence, 500 g ai/ha): 50; Plant response rating, Rice (rice (Oryza sativa)): 0; Plant response rating, Sedge, Umbrella [8]: 0; Plant response rating, Ducksalad [9]: 0; Plant response rating, Barnyardgrass [10]: 0
CN(C)c1cc(=O)n(-c2ccc(C(F)(F)F)cc2)nc1Cc1ccnc(C(F)(F)F)c1 [Compound 21]	20	30	0	10	90	90	100	100	20	40	0	0	30	50	30	70	30	60	0	10	Plant response rating, Crabgrass, Large ([5]; Postemergence, 125 g ai/ha): 20; Plant response rating, Crabgrass, Large ([5]; Postemergence, 500 g ai/ha): 60; Plant response rating, Crabgrass, Large ([5]; Preemergence, 125 g ai/ha): 80; Plant response rating, Crabgrass, Large ([5]; Preemergence, 500 g ai/ha): 100; Plant response rating, Barnyardgrass ([6]; Postemergence, 125 g ai/ha): 40; Plant response rating, Barnyardgrass ([6]; Postemergence, 500 g ai/ha): 50; Plant response rating, Barnyardgrass ([6]; Preemergence, 125 g ai/ha): 10; Plant response rating, Barnyardgrass ([6]; Preemergence, 500 g ai/ha): 30; Plant response rating, Velvetleaf ([7]; Postemergence, 125 g ai/ha): 60; Plant response rating, Velvetleaf ([7]; Postemergence, 500 g ai/ha): 80; Plant response rating, Velvetleaf ([7]; Preemergence, 125 g ai/ha): 0; Plant response rating, Velvetleaf ([7]; Preemergence, 500 g ai/ha): 20; Plant response rating, Rice (rice (Oryza sativa)): 0; Plant response rating, Sedge, Umbrella [8]: 90; Plant response rating, Ducksalad [9]: 0; Plant response rating, Barnyardgrass [10]: 0
CCCc1cc(=O)n(-c2ccc(F)cc2)nc1Cc1ccnc(C(F)(F)F)c1 [Compound 24]	50	70	30	50	100	100	100	100	50	60	30	50	70	80	100	100	50	90	30	80	Plant response rating, Crabgrass, Large ([5]; Postemergence, 125 g ai/ha): 70; Plant response rating, Crabgrass, Large ([5]; Postemergence, 500 g ai/ha): 90; Plant response rating, Crabgrass, Large ([5]; Preemergence, 125 g ai/ha): 100; Plant response rating, Crabgrass, Large ([5]; Preemergence, 500 g ai/ha): 100; Plant response rating, Barnyardgrass ([6]; Postemergence, 125 g ai/ha): 70; Plant response rating, Barnyardgrass ([6]; Postemergence, 500 g ai/ha): 90; Plant response rating, Barnyardgrass ([6]; Preemergence, 125 g ai/ha): 70; Plant response rating, Barnyardgrass ([6]; Preemergence, 500 g ai/ha): 100; Plant response rating, Velvetleaf ([7]; Postemergence, 125 g ai/ha): 80; Plant response rating, Velvetleaf ([7]; Postemergence, 500 g ai/ha): 80; Plant response rating, Velvetleaf ([7]; Preemergence, 125 g ai/ha): 30; Plant response rating, Velvetleaf ([7]; Preemergence, 500 g ai/ha): 80; Plant response rating, Rice (rice (Oryza sativa)): 20; Plant response rating, Sedge, Umbrella [8]: 90; Plant response rating, Ducksalad [9]: 30; Plant response rating, Barnyardgrass [10]: 0
